Where two headings read alike, the source gives them in different places.
Experiments:
Ofd1 = target: T1, Ofd1 (Schizosaccharomyces pombe, UniProt Q11120); assay: MALDI-TOF MS Ofd1 hydroxylation assay; format: biochemical
T1 construct: His6 (N); made in house; host or cells: E. coli BL21(DE3)
T1 sequence (Q11120 1-515): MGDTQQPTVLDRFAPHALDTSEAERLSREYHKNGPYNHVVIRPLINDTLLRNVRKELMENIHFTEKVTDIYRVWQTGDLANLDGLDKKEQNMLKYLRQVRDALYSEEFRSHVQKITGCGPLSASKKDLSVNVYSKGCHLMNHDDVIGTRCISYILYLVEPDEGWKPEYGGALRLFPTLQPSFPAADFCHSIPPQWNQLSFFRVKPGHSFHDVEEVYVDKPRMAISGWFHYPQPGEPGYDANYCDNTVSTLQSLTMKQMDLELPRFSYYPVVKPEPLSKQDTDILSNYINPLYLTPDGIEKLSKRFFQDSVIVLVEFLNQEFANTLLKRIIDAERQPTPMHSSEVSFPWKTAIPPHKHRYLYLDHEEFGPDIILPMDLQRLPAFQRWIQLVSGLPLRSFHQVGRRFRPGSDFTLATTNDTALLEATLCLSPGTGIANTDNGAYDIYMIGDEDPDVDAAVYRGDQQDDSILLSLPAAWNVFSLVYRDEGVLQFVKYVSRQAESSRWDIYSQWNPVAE

JARID1C (KDM5C) = JARID1C (KDM5C) (Homo sapiens, UniProt P41229); assay: AlphaScreen histone demethylase assay; format: biochemical
Chain of JARID1C (KDM5C) (P41229 whole entry, the tested form may be a part): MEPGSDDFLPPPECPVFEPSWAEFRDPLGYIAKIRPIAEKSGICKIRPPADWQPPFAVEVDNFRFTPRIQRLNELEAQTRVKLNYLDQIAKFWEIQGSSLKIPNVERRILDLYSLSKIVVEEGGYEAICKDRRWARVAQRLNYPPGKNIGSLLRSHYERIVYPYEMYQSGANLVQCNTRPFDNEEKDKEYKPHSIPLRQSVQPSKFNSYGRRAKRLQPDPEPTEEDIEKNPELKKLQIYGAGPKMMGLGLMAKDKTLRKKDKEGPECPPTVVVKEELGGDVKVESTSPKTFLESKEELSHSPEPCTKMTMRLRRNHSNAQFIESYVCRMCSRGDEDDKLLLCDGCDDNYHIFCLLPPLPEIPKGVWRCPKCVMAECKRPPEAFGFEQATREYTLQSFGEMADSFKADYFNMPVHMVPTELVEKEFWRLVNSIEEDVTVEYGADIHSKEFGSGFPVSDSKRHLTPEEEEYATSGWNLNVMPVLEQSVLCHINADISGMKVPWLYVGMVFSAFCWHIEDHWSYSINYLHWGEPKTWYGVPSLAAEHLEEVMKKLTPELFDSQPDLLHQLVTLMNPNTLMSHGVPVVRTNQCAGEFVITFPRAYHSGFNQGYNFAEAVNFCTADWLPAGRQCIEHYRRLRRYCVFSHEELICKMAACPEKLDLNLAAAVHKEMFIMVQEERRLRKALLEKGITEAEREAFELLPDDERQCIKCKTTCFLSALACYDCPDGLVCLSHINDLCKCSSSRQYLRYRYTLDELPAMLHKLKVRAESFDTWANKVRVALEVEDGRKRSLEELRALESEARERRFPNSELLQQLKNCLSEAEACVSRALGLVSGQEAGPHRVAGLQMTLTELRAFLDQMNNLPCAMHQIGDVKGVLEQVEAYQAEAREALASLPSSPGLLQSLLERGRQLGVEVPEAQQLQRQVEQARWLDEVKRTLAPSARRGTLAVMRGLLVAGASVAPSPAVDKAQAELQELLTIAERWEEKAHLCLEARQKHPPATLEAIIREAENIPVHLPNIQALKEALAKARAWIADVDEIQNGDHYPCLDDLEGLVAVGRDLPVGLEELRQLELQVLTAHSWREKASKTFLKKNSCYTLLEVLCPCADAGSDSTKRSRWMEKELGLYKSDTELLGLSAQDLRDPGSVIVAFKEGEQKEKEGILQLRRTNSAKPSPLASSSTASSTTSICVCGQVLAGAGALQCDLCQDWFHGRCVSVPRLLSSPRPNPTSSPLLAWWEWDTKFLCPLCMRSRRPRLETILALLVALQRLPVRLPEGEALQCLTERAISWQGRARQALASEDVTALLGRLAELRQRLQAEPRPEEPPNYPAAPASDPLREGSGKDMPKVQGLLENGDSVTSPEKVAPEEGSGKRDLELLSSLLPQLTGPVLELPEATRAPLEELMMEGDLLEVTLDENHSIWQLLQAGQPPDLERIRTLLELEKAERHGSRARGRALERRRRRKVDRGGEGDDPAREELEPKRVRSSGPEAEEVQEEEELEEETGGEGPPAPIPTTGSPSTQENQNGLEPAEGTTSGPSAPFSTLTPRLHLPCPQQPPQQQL

[1] = target: PHD2 catalytic domain (residues 181-426) (Homo sapiens, UniProt Q9GZT9); assay: NMR competition assays (2OG, CODD, NODD displacement); format: binding; parameters: The catalytic domain of human PHD2 (residues 181-426) was used in all; made in house; details: for 2OG displacement: inhibitor at 400 μM, PHD2 at 10 μM, 1H CPMG
Chain of PHD2 catalytic domain (residues 181-426) (Q9GZT9 181-426): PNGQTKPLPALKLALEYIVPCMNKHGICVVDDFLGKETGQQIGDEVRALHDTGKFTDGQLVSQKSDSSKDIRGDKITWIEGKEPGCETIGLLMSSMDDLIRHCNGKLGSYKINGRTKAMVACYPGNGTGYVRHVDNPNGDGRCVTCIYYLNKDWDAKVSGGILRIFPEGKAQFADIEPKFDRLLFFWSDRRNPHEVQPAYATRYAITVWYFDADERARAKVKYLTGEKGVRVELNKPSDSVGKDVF
Protocol: 2OG displacement experiments were monitored by CPMG-edited 1H NMR using a Bruker […]
supplemented with 60 µM Zn(II) and increasing concentrations of the inhibitors from a […]
(90°x−[τ−180°y−τ−90°y−τ−180°y−τ]n−acq), was applied. Typical experimental parameters were […]
suppression was achieved by presaturation.
For 13C-CODD and […] displacement experiments, 1D Clean In-Phase (CLIP) HSQC with selective 13C-inversion displacement experiments were conducted using a Bruker AV700 instrument. 3 mm MATCH NMR tubes were used (Cortecnet). All experiments were […]
prolyl-ring. 7 The CLIP-HSQC sequence was used for 1D HSQC experiments (without 13C decoupling).8 Relaxation delay was 2s. The 1JCH was set to 160 Hz. A 6.8 ms Q3.1000 180 degree pulse was used and selective irradiation was applied at the selected chemical shift. […]

[2] = test system: HIF-1α in HeLa and U2OS cells, HIF-1α and HIF-2α in Hep3b cells; assay: Immunoblotting of HIF-α stabilization, dose titration; format: cell-based, human; details: 6 hours treatment, all of the cells tested
Protocol: The cellular HIF-α stabilization was further studied using immunoblotting. […]. page 15: […]
freshly every day as a 400 mM stock solution in 20 mM HCl, this was then diluted to 1 mM in deionized water. L-ascorbic acid (50 mM) and 2OG stock solutions (10 mM) were prepared freshly every day in deionized water as for the PHD2 assays14 . The synthetic consensus ankyrin […]
peptide ([…]-CONH2) was synthesized by GL Biochem
(Shanghai) Ltd and dissolved to 1 mM in deionized water.
20 μl FIH (100 nM) in the assay buffer (50 mM Tris.Cl pH 7.8, 50 mM NaCl) was pre-incubated for 15 minutes in the presence of the inhibitors and the enzyme reaction initiated by addition of 20 μl substrate (200 μM L-ascorbic acid, 20 μM Fe2+, 10 μM synthetic ankyrin peptide 14 and 20 μM 2OG). After 15 minutes the reaction was quenched by addition of 4 μl 10% formic acid and the reaction transferred to a RapidFire RF360 high throughput sampling robot. Samples were aspirated under vacuum onto a C4 Solid Phase Extraction (SPE) cartridge.
After an aqueous washing step (0.1% formic acid in water), to remove non-volatile buffer components from the C4 SPE, peptide was eluted in an organic washing step (85% acetonitrile in water, 0.1% formic acid) and injected into an Agilent 6530 Q-TOF mass spectrometer. Ion chromatogram data was extracted for the non-hydroxylated peptide substrate and the hydroxylated peptide product; the peak area data for extracted ion chromatograms were integrated using RapidFire Integrator software. % conversion of substrate to product was calculated in Microsoft excel and IC50 curves generated using Graphpad Prism.
Cell Culture and Immunoblotting […]
Cells were harvested in urea/SDS buffer (6.7 M urea, 10 mM Tris-Cl pH 6.8, 10% glycerol, and1% SDS) supplemented with 1mM dithiothreitol following a phosphate-buffered saline (PBS) rinse. Cell extracts were analyzed with SDS-PAGE, electroblotted to polyvinylidene difluoride (PVDF) membrane (Millipore) and probed with the corresponding primary antibody for 1 hour at room temperature or overnight at 4 °C. […]

[3] = 1D-selective HSQC with selective 13C inversion
[4] = isolated recombinant enzyme, 1 μM, read-out: IC50 Ofd1

Structure (SMILES) | IC50 (Ofd1) [µM] | IC50 (JARID1C (KDM5C); read-out: IC50 JARID1C (KDM5C)) [µM] | 13C-NODD displacement [1, 3] | 2OG displacement [1] | IC50 (Ofd1; [4]) [µM] | concentration at which HIF-1α levels (and HIF-2α levels in Hep3b cells) were saturated [2] [µM] | 13C-CODD displacement [1, 3] | IC50 (JARID1C (KDM5C)) [µM]
CC(C)(C)OC(=O)c1ccc(-n2[nH]cc(-n3ccnn3)c2=O)nc1 [IOX4] | 41.3 | 97 | clearly displaced NODD | completely displaced 2OG |  |  |  | 
O=C(O)CNC(=O)c1ncc(-c2cccc(Cl)c2)cc1O [Vadadustat] |  | > 100 | clearly displaced NODD | completely displaced 2OG |  |  |  | 
Cc1nc(C(=O)NCC(=O)O)c(O)c2ccc(Oc3ccccc3)cc12 [FG-4592] |  | > 100 | clearly displaced NODD | completely displaced 2OG | 8.5 | < 100 | efficiently displaced CODD | 
O=c1c(-n2ccnn2)c[nH]n1-c1cc(N2CCOCC2)ncn1 [Molidustat] |  | > 100 | barely detectable | completely displaced 2OG | 10.3 | < 100 |  | 
O=C(O)CNC(=O)C1C(=O)N(C2CCCCC2)C(=O)N(C2CCCCC2)C1=O [GSK1278863] | 23.9 |  |  |  |  | < 100 |  | > 100

— publication PMC5802278, “Molecular and cellular mechanisms of HIF prolyl hydroxylase inhibitors in clinical trials” (Chemical Science, 2017)
